# Assay: Compressibility index of the active ingredient
# Assay type: physicochemical
# Settings: 2,000 mg compressed at 0.5 N, remaining weight after three droppings from 1 cm, n=5
# Protocol: The active ingredient weighing 2,000 mg was introduced into a polycarbonate tube (a hollow cylindrical form with an inner diameter of 12.5 mm and a height of 52.0 mm; “polycarbonate spacer (hollow) CPC (CPC-1252); manufactured by Hirosugi Keiki Co., Ltd.) which was left to stand on a stainless steel bat. Next, by using a tension and compression testing machine (“SDT—503 NB”; manufactured by Imada Seisakusho Co., Ltd.), the active ingredient within the polycarbonate tube was compressed by a cylindrical tool having a contact surface of 11.28 mmΦ in diameter to prepare a compressed product (compression condition; speed: 100 mm/min., load: 0.5 N, load maintaining time: 1 sec.). […]
# The lifted polycarbonate tube was released from the fingers, and dropped down. After repeating this procedure three times, the remaining weight of the polycarbonate tube containing the compressed product of the active ingredient was measured as a weight after test.
# The amount of powder flowing out from the polycarbonate tube was determined by subtracting the weight after test from the weight before test. Furthermore, the remaining weight of the compressed product of the active ingredient was determined by subtracting the amount of powder flowing out from the polycarbonate tube from the weight before test. […]
compound,measurement,value
"Cc1cc2nc3c(=O)[nH]c(=O)nc-3n(C[C@H](O)[C@H](O)[C@H](O)CO)c2cc1C [vitamin B2, riboflavin]",compressibility index,5%
